Assay results published in ChEMBL document CHEMBL2331112, “Synthesis of novel 2-alkyl triazole-3-alkyl substituted quinoline derivatives and their cytotoxic activity” (Bioorg Med Chem Lett, 2013).
In brackets after ≈: the same amount, converted by molar mass.

How the values were obtained:
Assay type in all cases: functional, cell-based
COLO 205 = assay: Cytotoxicity against human COLO205 cells after 24 hrs by MTT assay; conditions: COLO 205, 24 h
THP-1 = assay: Cytotoxicity against human THP1 cells after 24 hrs by MTT assay; conditions: THP-1, 24 h
U-937 = assay: Cytotoxicity against human U937 cells after 24 hrs by MTT assay; conditions: U-937, 24 h
HeLa = assay: Cytotoxicity against human HeLa cells after 24 hrs by MTT assay

SMILES	IC50 (COLO 205)	IC50 (THP-1)	IC50 (U-937)	IC50 (HeLa)
CCCCCCCCCCn1cc(-c2nc3ccccc3cc2C)nn1	44.5 µg/mL (≈ 127 µM)	> 100 µg/mL	> 100 µg/mL	28.2 µg/mL (≈ 80.4 µM)
CCCCCCCCCCn1cc(-c2nc3ccccc3cc2CC)nn1	> 100 µg/mL	34.3 µg/mL (≈ 94 µM)	12.7 µg/mL (≈ 34.9 µM)	> 100 µg/mL
CCCCCCCCCCn1cc(-c2nc3ccccc3cc2CCC)nn1	> 100 µg/mL	> 100 µg/mL	26.6 µg/mL (≈ 70.2 µM)	> 100 µg/mL
CCCCCCCCCCn1cc(-c2nc3ccccc3cc2CCCC)nn1	> 100 µg/mL	> 100 µg/mL	25.2 µg/mL (≈ 64.3 µM)	> 100 µg/mL
CCCCCCCCCCn1cc(-c2nc3ccccc3cc2CCCCC)nn1	> 100 µg/mL	88 µg/mL (≈ 216 µM)	18.2 µg/mL (≈ 44.7 µM)	> 100 µg/mL
Cc1cc2ccccc2nc1-c1cn(CCC(F)(F)C(F)(F)C(F)(F)C(F)(F)C(F)(F)C(F)(F)C(F)(F)C(F)(F)F)nn1	75.8 µg/mL (≈ 116 µM)	> 100 µg/mL	56.6 µg/mL (≈ 86.2 µM)	> 100 µg/mL
CCc1cc2ccccc2nc1-c1cn(CCC(F)(F)C(F)(F)C(F)(F)C(F)(F)C(F)(F)C(F)(F)C(F)(F)C(F)(F)F)nn1	95.2 µg/mL (≈ 142 µM)	> 100 µg/mL	55.9 µg/mL (≈ 83.4 µM)	> 100 µg/mL
CCCc1cc2ccccc2nc1-c1cn(CCC(F)(F)C(F)(F)C(F)(F)C(F)(F)C(F)(F)C(F)(F)C(F)(F)C(F)(F)F)nn1	> 100 µg/mL	> 100 µg/mL	> 100 µg/mL	37.8 µg/mL (≈ 55.2 µM)
CCCCc1cc2ccccc2nc1-c1cn(CCC(F)(F)C(F)(F)C(F)(F)C(F)(F)C(F)(F)C(F)(F)C(F)(F)C(F)(F)F)nn1	> 100 µg/mL	> 100 µg/mL	59.1 µg/mL (≈ 84.6 µM)	32.8 µg/mL (≈ 47 µM)
CCCCCc1cc2ccccc2nc1-c1cn(CCC(F)(F)C(F)(F)C(F)(F)C(F)(F)C(F)(F)C(F)(F)C(F)(F)C(F)(F)F)nn1	> 100 µg/mL	> 100 µg/mL	> 100 µg/mL	> 100 µg/mL
Cc1cc2ccccc2nc1-c1cn(-c2ccc(F)cc2)nn1	> 100 µg/mL	> 100 µg/mL	65.6 µg/mL (≈ 215 µM)	> 100 µg/mL
CCc1cc2ccccc2nc1-c1cn(-c2ccc(F)cc2)nn1	> 100 µg/mL	> 100 µg/mL	> 100 µg/mL	> 100 µg/mL
CCCc1cc2ccccc2nc1-c1cn(-c2ccc(F)cc2)nn1	> 100 µg/mL	> 100 µg/mL	67.4 µg/mL (≈ 203 µM)	> 100 µg/mL
CCCCc1cc2ccccc2nc1-c1cn(-c2ccc(F)cc2)nn1	> 100 µg/mL	78.3 µg/mL (≈ 226 µM)	66.2 µg/mL (≈ 191 µM)	> 100 µg/mL
CCCCCc1cc2ccccc2nc1-c1cn(-c2ccc(F)cc2)nn1	> 100 µg/mL	> 100 µg/mL	67.5 µg/mL (≈ 187 µM)	> 100 µg/mL
O=c1[nH]cc(F)c(=O)[nH]1 [FLUOROURACIL]	4.03 µg/mL (≈ 31 µM)	0.54 µg/mL (≈ 4.15 µM)	0.87 µg/mL (≈ 6.69 µM)	1.28 µg/mL (≈ 9.84 µM)
